Data taken from patent US20100173888A1 (Pfizer Inc, priority 2008, published 2010).

Target: human recombinant H-PGDS (Homo sapiens, UniProt O60760)
Assay: Fluorescence intensity h-PGDS TBA enzyme assay (PGH2 depletion, MDA/TBA fluorescence)
Type: biochemical
Conditions: 1:175,000 human recombinant H-PGDS, 42 second reaction, 3-fold serial dilutions, highest concentration typically 1 μM
Procedure: Fluoresecence Intensity h-PGDSTBA Enzyme Assay
Prostaglandin D Synthase (PGDS) converts the substrate prostaglandin H2 (PGH2) to prostaglandin D2. The depletion of PGH2 was measured via an Fe(II) reduction of the remaining PGH2 to malondialdehyde (MDA) and 12-HHT. The enzyme assay is based on the quantitative formation of a fluorescent complex from the non-fluorescent compounds MDA and 2-thiobarbituric acid (TBA), substantially as described in U.S. patent application publication US-2004/152148 by Lombardt.
The enzyme assay (31 μls) contained 100 mM Tris base pH 8.0, 100 μM MgCl2, 0.1 mg/ml IgG Rabbit serum, 5.0 μM PGH2 (Cayman; ethanol solution, #17020), 2.5 mM L-Glutathione (Sigma; reduced form. #G4251), 1:175,000 human recombinant H-PGDS (from 1 mg/ml), 0.5% DMSO and inhibitor (varying concentration). Three μls of diluted inhibitor (dissolved in DMSO) was plated into a 384-well assay plate followed by a 25 μl addition of an enzyme solution containing h-PGDS, Tris, MgCl2, IgG and L-Glutathione. After preincubation of inhibitor and enzyme solution for 10 minutes at room temperature, the reaction was initiated with a 3 μl addition of substrate solution in 10 mM HCl. The reaction was terminated after 42 second by the addition (3 μl) of stop buffer containing FeCl2 and citric acid. After addition of 45.5 μls of TBA plates were heated for one hour in a 70° C. oven. Plates were cooled at room temperature overnight and read on a plate reader the next day with excitation @ 530 nm and emission @ 565 nm.
IC50' s of inhibitors were calculated with a 4-parameter fit using 11 inhibitor concentrations in duplicate with 3-fold serial dilutions. Controls on each plate included no inhibitor (zero % effect) and an inhibitor 10-fold in excess of its' IC50 (100% effect). The highest inhibitor concentration tested was typically 1 μM.

human recombinant H-PGDS, sequence (O60760 whole entry): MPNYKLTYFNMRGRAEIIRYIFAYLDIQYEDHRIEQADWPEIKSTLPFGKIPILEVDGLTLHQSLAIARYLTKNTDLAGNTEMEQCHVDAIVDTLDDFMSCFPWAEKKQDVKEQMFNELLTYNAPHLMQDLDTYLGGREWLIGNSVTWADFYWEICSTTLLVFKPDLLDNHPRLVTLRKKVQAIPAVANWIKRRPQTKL

Structure (SMILES)	IC50
CN1CCN(C(=O)N[C@@H]2CCC[C@H](NC(=O)c3ccc(-c4cccc(F)c4)nc3)C2)CC1 (relative stereo) [Example 268, N-(cis-3-({[6-(3-Fluorophenyl)pyridine-3-yl]carbonyl}amino)cyclohexyl]-4-methylpiperazine-1-carboxamide]	24.6 nM
CC(C)(O)CNC(=O)[C@@H]1CCC[C@H](NC(=O)c2ccc(-c3cccc(F)c3)nc2)C1 (stereo in doubt) [Example 195, 6-(3-Fluorophenyl)-N-{(1S,3R)-3-[(2-hydroxy-2-methylpropyl)carbamoyl]cyclohexyl}nicotinamide]	11.8 nM
O=C(NC1(c2ccccn2)CC1)c1ccc(-c2cccc(F)c2)nc1 [Example 1, 6-(3-Fluorophenyl)-N-(1-pyridin-2-ylcyclopropyl)nicotinamide]	64.9 nM
COC(=O)C1(NC(=O)c2ccc(-c3cccc(F)c3)nc2)CC1 [Example 2, Methyl 1-({[6-(3-fluorophenyl)pyridin-3-yl]carbonyl}amino)cyclopropanecarboxylate]	319 nM
COC(=O)C1(NC(=O)c2ccc(-c3cccc(C)c3)nc2)CC1 [Example 3, Methyl 1-({[6-(3-methylphenyl)pyridin-3-yl]carbonyl}amino)cyclopropanecarboxylate]	246 nM
COC(=O)C1(NC(=O)c2ccc(-c3cccc(OC)c3)nc2)CC1 [Example 4, Methyl 1-({[6-(3-methoxyphenyl)pyridin-3-yl]carbonyl}amino)cyclopropanecarboxylate]	≥ 1000 nM
COC(=O)C1(NC(=O)c2ccc(-c3ccc(F)cc3)nc2)CC1 [Example 5]	≥ 1000 nM
O=C(NC1CCCC1)c1ccc(-c2cccc(F)c2)nc1 [Example 9, N-Cyclopentyl-6-(3-fluorophenyl)nicotinamide]	7.11 nM
COC[C@H]1CCC[C@H]1NC(=O)c1ccc(-c2cccc(F)c2)nc1 [Example 10]	94.3 nM
O=C(NC1CCCCC1)c1ccc(-c2cccc(F)c2)nc1 [Example 18, N-Cyclohexyl-6-(3-fluorophenyl)nicotinamide]	7.72 nM
Cc1cccc(-c2ccc(C(=O)NC3CCCCC3)cn2)c1 [Example 19, N-Cyclohexyl-6-(3-methylphenyl)nicotinamide]	10.2 nM
O=C(N[C@@H]1CCCC[C@@H]1CO)c1ccc(-c2cccc(F)c2)nc1 [Example 24]	20.1 nM
O=C(N[C@H]1CC[C@H](O)CC1)c1ccc(-c2cccc(F)c2)nc1 [Example 104, 6-(3-Fluorophenyl)-N-(trans-4-hydroxycyclohexyl)nicotinamide]	2.29 nM
CN(C)CCCNC(=O)[C@H]1CC[C@H](NC(=O)c2ccc(-c3cccc(F)c3)nc2)CC1 [Example 113A, N-(trans-4-{[3-(dimethylamino)propyl]carbamoyl}cyclohexyl)-6-(3-fluorophenyl)nicotinamide]	21.1 nM
O=C(N[C@H]1CC[C@H](C(=O)N[C@@H]2CCNC2=O)CC1)c1ccc(-c2cccc(F)c2)nc1 [Example 113B, 6-(3-fluorophenyl)-N-(trans-4-{[(3R)-2-oxopyrrolidin-3-yl]carbamoyl}cyclohexyl)nicotinamide]	7 nM
N[C@H]1CCCC[C@H]1NC(=O)[C@H]1CC[C@H](NC(=O)c2ccc(-c3cccc(F)c3)nc2)CC1 [Example 113D, N-(trans-4-{[(1R,2S)-2-aminocyclohexyl]carbamoyl}cyclohexyl)-6-(3-fluorophenyl)nicotinamide]	10.8 nM
O=C(N[C@H]1CC[C@H](C(=O)N[C@@H]2CCOC2)CC1)c1ccc(-c2cccc(F)c2)nc1 [Example 113E, 6-(3-fluorophenyl)-N-{trans-4-[(3R)-tetrahydrofuran-3-ylcarbamoyl]cyclohexyl}nicotinamide]	8.8 nM
O=C(N[C@H]1CC[C@H](C(=O)NCCN2CCCCC2)CC1)c1ccc(-c2cccc(F)c2)nc1 [Example 113H, 6-(3-fluorophenyl)-N-{trans-4-[(2-piperidin-1-ylethyl)carbamoyl]cyclohexyl}nicotinamide]	46 nM
COCCNC(=O)[C@H]1CC[C@H](NC(=O)c2ccc(-c3cccc(F)c3)nc2)CC1 [Example 113I, 6-(3-fluorophenyl)-N-{trans-4-[(2-methoxyethyl)carbamoyl]cyclohexyl}nicotinamide]	10.5 nM
CC[C@@H](O)C(=O)N[C@H]1CC[C@H](NC(=O)c2ccc(-c3cccc(F)c3)nc2)CC1 [Example 113J, 6-(3-fluorophenyl)-N-(trans-4-{[(2R)-2-hydroxybutanoyl]amino}cyclohexyl)nicotinamide]	6.6 nM
CC(C)(N)C(=O)N[C@H]1CC[C@H](NC(=O)c2ccc(-c3cccc(F)c3)nc2)CC1 [Example 113K, 6-(3-fluorophenyl)-N-{trans-4-[(2-methylalanyl)amino]cyclohexyl}nicotinamide]	9.6 nM
CC[C@H](O)C(=O)N[C@H]1CC[C@H](NC(=O)c2ccc(-c3cccc(F)c3)nc2)CC1 [Example 113L, 6-(3-fluorophenyl)-N-(trans-4-{[(2S)-2-hydroxybutanoyl]amino}cyclohexyl)nicotinamide]	6.1 nM
Cc1ccnn1CC(=O)N[C@H]1CC[C@H](NC(=O)c2ccc(-c3cccc(F)c3)nc2)CC1 [Example 113M, 6-(3-fluorophenyl)-N-(trans-4-{[(5-methyl-1H-pyrazol-1-yl)acetyl]amino}cyclohexyl)nicotinamide]	7.6 nM
COCC(=O)N[C@H]1CC[C@H](NC(=O)c2ccc(-c3cccc(F)c3)nc2)CC1 [Example 113N, 6-(3-fluorophenyl)-N-{trans-4-[(methoxyacetyl)amino]cyclohexyl}nicotinamide]	11.5 nM
CC(=O)NC(C)(C)[C@H]1CC[C@H](NC(=O)c2ccc(-c3cccc(F)c3)nc2)CC1 [Example 113P, N-[trans-4-(1-acetamido-1-methylethyl)cyclohexyl]-6-(3-fluorophenyl)nicotinamide]	9.1 nM

Continued by falling IC50, values first:

IC50	Structure (SMILES)
105 nM	COc1cccc(-c2ccc(C(=O)NC3CCCCC3)cn2)c1 [Example 20, N-Cyclohexyl-6-(3-methoxyphenyl)nicotinamide]
44.1 nM	O=C(N[C@H]1CCC[C@@H](CN2CC(O)C2)C1)c1ccc(-c2cccc(F)c2)nc1 (stereo in doubt) [Example 256, 6-(3-Fluorophenyl)-N-{(1S,3R)-3-[(3-hydroxyazetidin-1-yl)methyl]cyclohexyl}nicotinamide]
40.8 nM	O=C(NC1CCCCC1)c1ccc(-c2ccc(F)cc2)nc1 [Example 22, N-Cyclohexyl-6-(4-fluorophenyl)nicotinamide]
22.3 nM	O=C(N[C@H]1CCCC[C@@H]1O)c1ccc(-c2cccc(F)c2)nc1 [Example 25]
15.3 nM	CN(C(=O)[C@@H]1CCC[C@H](NC(=O)c2ccc(-c3cccc(F)c3)nc2)C1)C1CCNCC1 (stereo in doubt) [Example 192, 6-(3-Fluorophenyl)-N-{(1S,3R)-3-[methyl(piperidin-4-yl)carbamoyl]cyclohexyl}nicotinamide]
11 nM	O=C(N[C@H]1CCC[C@@H](NC(=O)N2CCOCC2)C1)c1ccc(-c2cccc(F)c2)nc1 (relative stereo) [Example 267]
10.2 nM	CN[C@H]1CC[C@H](NC(=O)[C@@H]2CCC[C@H](NC(=O)c3ccc(-c4cccc(F)c4)nc3)C2)CC1 (stereo in doubt) [Example 193, 6-(3-Fluorophenyl)-N-[(1S,3R)-3-{[trans-4-(methylamino)cyclohexyl]carbamoyl}cyclohexyl]nicotinamide]
7.4 nM	O=C(N[C@H]1CC[C@H](C(=O)N[C@H]2CCNC2=O)CC1)c1ccc(-c2cccc(F)c2)nc1 [Example 113C, 6-(3-fluorophenyl)-N-(trans-4-{[(3S)-2-oxopyrrolidin-3-yl]carbamoyl}cyclohexyl)nicotinamide]
7.3 nM	O=CN[C@H]1CC[C@H](NC(=O)c2ccc(-c3cccc(F)c3)nc2)CC1 [Example 113O, 6-(3-fluorophenyl)-N-(trans-4-formamidocyclohexyl)nicotinamide]
4.5 nM	O=C(N[C@H]1CC[C@H](C(=O)NCCCO)CC1)c1ccc(-c2cccc(F)c2)nc1 [Example 113G, 6-(3-fluorophenyl)-N-{trans-4-[(3-hydroxypropyl)carbamoyl]cyclohexyl}nicotinamide]
2.87 nM	O=C(NC1CCCCC1O)c1ccc(-c2cccc(F)c2)nc1 (centres unmarked) [Example 17, 6-(3-Fluorophenyl)-N-(2-hydroxycyclohexyl)nicotinamide]
1.66 nM	O=C(NC1CCCCC1)c1ccc(-c2ccccc2)nc1 [Example 21, N-Cyclohexyl-6-phenylnicotinamide]
0.614 nM	CC(C)(O)C1CCC(NC(=O)c2ccc(-c3cccc(F)c3)nc2)CC1 (centres unmarked) [Example 48, 6-(3-Fluorophenyl)-N-[4-(1-hydroxy-1-methylethyl)cyclohexyl]nicotinamide]
